From publication PMC7313537 (PLoS ONE, 2020)

Assays:
Experiment in all cases: Broader kinase panel (PerkinElmer)
Format in all cases: biochemical
Details in all cases: 100 nM; read-out: Average Percent Inhibition
[1] = target: T1, EPHA8 (Homo sapiens, UniProt P29322)
T1 construct: purchased In-house HTRF panel (56 kinases) and PerkinElmer (161-kinase panel)
Excerpt: (§1) […]. […] […].

[2] = target: T2, MST2 (Homo sapiens, UniProt Q13188)
T2 construct: purchased In-house HTRF panel (56 kinases) and PerkinElmer (161-kinase panel)
Excerpt: as §1

[3] = target: T3, Ca MK2a (Homo sapiens, UniProt Q9UQM7)
T3 construct: purchased In-house HTRF panel (56 kinases) and PerkinElmer (161-kinase panel)
T3 sequence (Q9UQM7 whole entry): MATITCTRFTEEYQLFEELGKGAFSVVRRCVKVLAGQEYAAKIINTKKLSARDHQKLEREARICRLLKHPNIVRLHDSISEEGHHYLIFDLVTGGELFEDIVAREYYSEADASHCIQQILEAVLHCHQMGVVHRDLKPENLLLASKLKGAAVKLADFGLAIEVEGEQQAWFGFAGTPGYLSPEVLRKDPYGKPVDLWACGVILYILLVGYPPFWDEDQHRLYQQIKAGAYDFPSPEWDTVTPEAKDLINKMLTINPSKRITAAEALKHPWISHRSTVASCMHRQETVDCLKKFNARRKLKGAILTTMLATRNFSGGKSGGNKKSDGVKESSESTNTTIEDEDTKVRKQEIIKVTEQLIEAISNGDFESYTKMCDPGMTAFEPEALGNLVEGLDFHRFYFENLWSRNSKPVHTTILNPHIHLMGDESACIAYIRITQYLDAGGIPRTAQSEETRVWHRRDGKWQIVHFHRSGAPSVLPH
Excerpt: as §1

[4] = target: T4, p38-delta (Homo sapiens, UniProt O15264)
T4 construct: purchased In-house HTRF panel (56 kinases) and PerkinElmer (161-kinase panel)
Excerpt: as §1

[5] = target: T5, BRSK2 (Homo sapiens, UniProt Q8IWQ3)
T5 construct: purchased In-house HTRF panel (56 kinases) and PerkinElmer (161-kinase panel)
T5 sequence (Q8IWQ3 whole entry): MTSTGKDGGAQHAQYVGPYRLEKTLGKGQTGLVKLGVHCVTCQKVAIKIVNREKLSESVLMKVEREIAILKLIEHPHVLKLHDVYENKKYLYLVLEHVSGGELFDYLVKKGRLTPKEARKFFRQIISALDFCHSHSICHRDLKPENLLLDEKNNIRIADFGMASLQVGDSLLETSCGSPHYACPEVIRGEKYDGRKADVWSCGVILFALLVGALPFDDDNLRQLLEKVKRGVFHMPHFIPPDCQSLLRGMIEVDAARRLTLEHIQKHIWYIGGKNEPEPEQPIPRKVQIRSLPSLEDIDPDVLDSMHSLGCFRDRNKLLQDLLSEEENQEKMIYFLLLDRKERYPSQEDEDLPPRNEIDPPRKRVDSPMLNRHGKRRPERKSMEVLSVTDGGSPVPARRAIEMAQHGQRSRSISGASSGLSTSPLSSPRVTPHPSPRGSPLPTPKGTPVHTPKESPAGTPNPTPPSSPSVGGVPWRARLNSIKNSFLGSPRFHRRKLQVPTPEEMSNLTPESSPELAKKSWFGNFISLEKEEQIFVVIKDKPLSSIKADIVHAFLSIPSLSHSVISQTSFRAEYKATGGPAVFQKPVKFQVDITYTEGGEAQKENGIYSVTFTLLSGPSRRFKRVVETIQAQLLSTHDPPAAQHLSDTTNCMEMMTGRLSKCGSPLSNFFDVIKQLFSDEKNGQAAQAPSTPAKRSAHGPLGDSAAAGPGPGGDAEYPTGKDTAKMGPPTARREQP
Excerpt: as §1

[6] = target: BTK (Homo sapiens, UniProt Q06187)
Excerpt: as §1

[7] = target: T6, EGFR(T790M) (Homo sapiens, UniProt P00533, T790M)
T6 construct: purchased In-house HTRF panel (56 kinases) and PerkinElmer (161-kinase panel)
Excerpt: as §1

[8] = target: T7, EPHB2 (Homo sapiens, UniProt P29323)
T7 construct: purchased In-house HTRF panel (56 kinases) and PerkinElmer (161-kinase panel)
Excerpt: as §1

[9] = target: T8, PKC-alpha (Homo sapiens, UniProt P17252)
T8 construct: purchased In-house HTRF panel (56 kinases) and PerkinElmer (161-kinase panel)
Excerpt: as §1

[10] = target: SYK (Homo sapiens, UniProt P43405)
Excerpt: as §1

[11] = target: T9, GSK3-alpha (Homo sapiens, UniProt P49840)
T9 construct: purchased In-house HTRF panel (56 kinases) and PerkinElmer (161-kinase panel)
T9 sequence (P49840 whole entry): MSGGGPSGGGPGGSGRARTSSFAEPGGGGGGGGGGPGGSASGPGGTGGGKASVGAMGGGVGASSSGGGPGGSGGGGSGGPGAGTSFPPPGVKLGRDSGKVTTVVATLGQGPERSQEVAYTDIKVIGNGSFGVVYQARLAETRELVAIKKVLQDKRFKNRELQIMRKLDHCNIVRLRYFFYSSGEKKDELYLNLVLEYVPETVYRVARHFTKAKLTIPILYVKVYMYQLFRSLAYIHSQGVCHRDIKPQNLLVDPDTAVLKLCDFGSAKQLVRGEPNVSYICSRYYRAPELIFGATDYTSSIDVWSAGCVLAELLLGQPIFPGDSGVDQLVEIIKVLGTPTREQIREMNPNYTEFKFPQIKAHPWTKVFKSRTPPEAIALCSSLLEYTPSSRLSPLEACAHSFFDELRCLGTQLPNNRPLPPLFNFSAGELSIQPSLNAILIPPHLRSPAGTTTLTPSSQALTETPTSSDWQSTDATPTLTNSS
Excerpt: as §1

[12] = target: T10, PIM3 (Homo sapiens, UniProt Q86V86)
T10 construct: purchased In-house HTRF panel (56 kinases) and PerkinElmer (161-kinase panel)
Excerpt: as §1

[13] = target: T11, FGR (Homo sapiens, UniProt P09769)
T11 construct: purchased In-house HTRF panel (56 kinases) and PerkinElmer (161-kinase panel)
Excerpt: as §1

[14] = target: T12, Erk1 (Homo sapiens, UniProt P27361)
T12 construct: purchased In-house HTRF panel (56 kinases) and PerkinElmer (161-kinase panel)
T12 sequence (P27361 whole entry): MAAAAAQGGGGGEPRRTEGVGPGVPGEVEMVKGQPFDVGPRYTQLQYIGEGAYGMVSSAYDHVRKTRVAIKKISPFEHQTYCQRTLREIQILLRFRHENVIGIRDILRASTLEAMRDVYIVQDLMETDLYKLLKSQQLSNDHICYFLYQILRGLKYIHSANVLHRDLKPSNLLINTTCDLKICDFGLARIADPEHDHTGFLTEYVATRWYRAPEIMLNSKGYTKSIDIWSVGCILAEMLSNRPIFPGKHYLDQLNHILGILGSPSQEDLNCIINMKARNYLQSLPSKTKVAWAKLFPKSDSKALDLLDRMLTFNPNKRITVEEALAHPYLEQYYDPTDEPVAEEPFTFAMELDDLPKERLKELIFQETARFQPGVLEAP
Excerpt: as §1

[15] = target: T13, PDGFR BETA (Homo sapiens, UniProt P09619)
T13 construct: purchased In-house HTRF panel (56 kinases) and PerkinElmer (161-kinase panel)
Excerpt: as §1

[16] = target: T14, NEK2 (Homo sapiens, UniProt P51955)
T14 construct: purchased In-house HTRF panel (56 kinases) and PerkinElmer (161-kinase panel)
Excerpt: as §1

[17] = target: T15, Arg (Homo sapiens, UniProt P42684)
T15 construct: purchased In-house HTRF panel (56 kinases) and PerkinElmer (161-kinase panel)
Excerpt: as §1

[18] = target: T16, TSSK2 (Homo sapiens, UniProt Q96PF2)
T16 construct: purchased In-house HTRF panel (56 kinases) and PerkinElmer (161-kinase panel)
Excerpt: as §1

[19] = target: T17, c-TAK1 (Homo sapiens, UniProt P27448)
T17 construct: purchased In-house HTRF panel (56 kinases) and PerkinElmer (161-kinase panel)
Excerpt: as §1

[20] = target: FLT3 (Homo sapiens, UniProt P36888)
Excerpt: as §1

[21] = target: T18, PIM1 (Homo sapiens, UniProt P11309)
T18 construct: purchased In-house HTRF panel (56 kinases) and PerkinElmer (161-kinase panel)
Excerpt: as §1

[22] = target: T19, PKA (Homo sapiens, UniProt P17612)
T19 construct: purchased In-house HTRF panel (56 kinases) and PerkinElmer (161-kinase panel)
Excerpt: as §1

[23] = target: T20, Casein kinase 1g2 (Homo sapiens, UniProt P78368)
T20 construct: purchased In-house HTRF panel (56 kinases) and PerkinElmer (161-kinase panel)
Excerpt: as §1

[24] = target: T21, Hck (Homo sapiens, UniProt P08631)
T21 construct: purchased In-house HTRF panel (56 kinases) and PerkinElmer (161-kinase panel)
Excerpt: as §1

[25] = target: T22, TXK (Homo sapiens, UniProt P42681)
T22 construct: purchased In-house HTRF panel (56 kinases) and PerkinElmer (161-kinase panel)
Excerpt: as §1

[26] = target: T23, AKT3 (Homo sapiens, UniProt Q9Y243)
T23 construct: purchased In-house HTRF panel (56 kinases) and PerkinElmer (161-kinase panel)
Excerpt: as §1

[27] = target: T24, IKK-beta (Homo sapiens, UniProt O14920)
T24 construct: purchased In-house HTRF panel (56 kinases) and PerkinElmer (161-kinase panel)
Excerpt: as §1

[28] = target: T25, AXL (Homo sapiens, UniProt P30530)
T25 construct: purchased In-house HTRF panel (56 kinases) and PerkinElmer (161-kinase panel)
Excerpt: as §1

[29] = target: T26, Flt3(D835Y) (Homo sapiens, UniProt P36888, D835Y)
T26 construct: purchased In-house HTRF panel (56 kinases) and PerkinElmer (161-kinase panel)
Excerpt: as §1

[30] = target: T27, CK1-epsilon (Homo sapiens, UniProt P49674)
T27 construct: purchased In-house HTRF panel (56 kinases) and PerkinElmer (161-kinase panel)
Excerpt: as §1

[31] = target: T28, MST1R (Homo sapiens, UniProt Q04912)
T28 construct: purchased In-house HTRF panel (56 kinases) and PerkinElmer (161-kinase panel)
Excerpt: as §1

[32] = target: T29, MET M1250T (Homo sapiens, UniProt P08581, M1250T)
T29 construct: purchased In-house HTRF panel (56 kinases) and PerkinElmer (161-kinase panel)
Excerpt: as §1

[33] = target: T30, PKC-eta (Homo sapiens, UniProt P24723)
T30 construct: purchased In-house HTRF panel (56 kinases) and PerkinElmer (161-kinase panel)
Excerpt: as §1

[34] = target: T31, MSK1 (Homo sapiens, UniProt O75582)
T31 construct: purchased In-house HTRF panel (56 kinases) and PerkinElmer (161-kinase panel)
T31 sequence (O75582 whole entry): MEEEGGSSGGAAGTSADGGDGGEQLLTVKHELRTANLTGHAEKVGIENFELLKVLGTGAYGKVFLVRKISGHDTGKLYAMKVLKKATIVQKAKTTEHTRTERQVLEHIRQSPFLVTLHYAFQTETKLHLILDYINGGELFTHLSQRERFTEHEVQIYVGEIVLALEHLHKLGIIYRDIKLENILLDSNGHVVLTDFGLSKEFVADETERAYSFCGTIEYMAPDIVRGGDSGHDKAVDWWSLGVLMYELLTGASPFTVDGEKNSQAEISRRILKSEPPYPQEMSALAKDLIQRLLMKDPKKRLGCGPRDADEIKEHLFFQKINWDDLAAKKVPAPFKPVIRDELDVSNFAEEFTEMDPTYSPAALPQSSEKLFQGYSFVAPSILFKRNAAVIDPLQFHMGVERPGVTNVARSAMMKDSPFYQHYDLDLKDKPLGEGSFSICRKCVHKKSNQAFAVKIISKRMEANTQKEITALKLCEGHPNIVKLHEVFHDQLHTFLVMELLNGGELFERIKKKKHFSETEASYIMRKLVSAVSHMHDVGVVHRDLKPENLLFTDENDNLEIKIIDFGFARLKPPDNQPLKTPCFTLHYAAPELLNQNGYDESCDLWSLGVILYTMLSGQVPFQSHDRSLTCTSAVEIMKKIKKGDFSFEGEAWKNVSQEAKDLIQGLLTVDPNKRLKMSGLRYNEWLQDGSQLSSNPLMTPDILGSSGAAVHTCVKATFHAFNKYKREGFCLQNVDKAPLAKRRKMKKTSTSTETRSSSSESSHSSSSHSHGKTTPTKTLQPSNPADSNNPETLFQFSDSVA
Excerpt: as §1

[35] = target: T32, KIT[T670I] (Homo sapiens, UniProt P10721, T670I)
T32 construct: purchased In-house HTRF panel (56 kinases) and PerkinElmer (161-kinase panel)
T32 sequence (P10721 26-976 T670I): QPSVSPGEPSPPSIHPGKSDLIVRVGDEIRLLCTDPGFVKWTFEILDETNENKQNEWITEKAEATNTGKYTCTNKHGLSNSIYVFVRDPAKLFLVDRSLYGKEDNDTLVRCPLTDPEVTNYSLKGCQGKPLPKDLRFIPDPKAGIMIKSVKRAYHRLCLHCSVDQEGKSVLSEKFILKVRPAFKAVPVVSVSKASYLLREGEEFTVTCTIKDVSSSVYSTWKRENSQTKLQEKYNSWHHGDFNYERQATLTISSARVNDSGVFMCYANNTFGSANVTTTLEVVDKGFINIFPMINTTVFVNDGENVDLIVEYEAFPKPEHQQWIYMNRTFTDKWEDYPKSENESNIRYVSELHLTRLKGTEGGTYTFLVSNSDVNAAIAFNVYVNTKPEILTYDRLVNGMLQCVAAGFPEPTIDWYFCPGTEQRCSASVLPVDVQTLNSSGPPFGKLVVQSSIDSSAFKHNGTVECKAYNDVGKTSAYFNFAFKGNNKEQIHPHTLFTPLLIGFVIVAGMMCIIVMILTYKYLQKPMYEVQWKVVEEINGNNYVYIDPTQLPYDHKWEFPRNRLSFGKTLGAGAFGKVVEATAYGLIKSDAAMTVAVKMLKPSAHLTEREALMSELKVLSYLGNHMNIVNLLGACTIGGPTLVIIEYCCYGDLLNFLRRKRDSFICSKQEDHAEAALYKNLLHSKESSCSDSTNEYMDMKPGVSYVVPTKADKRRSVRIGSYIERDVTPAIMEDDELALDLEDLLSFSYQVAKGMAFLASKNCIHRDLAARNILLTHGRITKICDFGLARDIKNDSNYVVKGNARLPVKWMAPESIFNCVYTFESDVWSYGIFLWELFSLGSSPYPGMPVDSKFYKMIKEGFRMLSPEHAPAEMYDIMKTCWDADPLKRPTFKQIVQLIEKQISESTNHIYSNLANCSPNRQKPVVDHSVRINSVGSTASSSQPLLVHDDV
Excerpt: as §1

[36] = target: T33, RSK1 (Homo sapiens, UniProt Q15418)
T33 construct: purchased In-house HTRF panel (56 kinases) and PerkinElmer (161-kinase panel)
Excerpt: as §1

[37] = target: T34, PKD1 (Homo sapiens, UniProt Q15139)
T34 construct: purchased In-house HTRF panel (56 kinases) and PerkinElmer (161-kinase panel)
Excerpt: as §1

[38] = target: T35, PKC-epsilon (Homo sapiens, UniProt Q02156)
T35 construct: purchased In-house HTRF panel (56 kinases) and PerkinElmer (161-kinase panel)
Excerpt: as §1

[39] = target: T36, RSK4 (Homo sapiens, UniProt Q9UK32)
T36 construct: purchased In-house HTRF panel (56 kinases) and PerkinElmer (161-kinase panel)
Excerpt: as §1

[40] = target: T37, p70S6K (Homo sapiens, UniProt P23443)
T37 construct: purchased In-house HTRF panel (56 kinases) and PerkinElmer (161-kinase panel)
Excerpt: as §1

[41] = target: T38, PKC-beta1 (Homo sapiens, UniProt P05771)
T38 construct: purchased In-house HTRF panel (56 kinases) and PerkinElmer (161-kinase panel)
Excerpt: as §1

[42] = target: T39, AurC (Homo sapiens, UniProt Q9UQB9)
T39 construct: purchased In-house HTRF panel (56 kinases) and PerkinElmer (161-kinase panel)
Excerpt: as §1

[43] = target: T40, ABL1(Y253F) (Homo sapiens, UniProt P00519, Y253F)
T40 construct: purchased In-house HTRF panel (56 kinases) and PerkinElmer (161-kinase panel)
Excerpt: as §1

T1 sequence (P29322 28-1005): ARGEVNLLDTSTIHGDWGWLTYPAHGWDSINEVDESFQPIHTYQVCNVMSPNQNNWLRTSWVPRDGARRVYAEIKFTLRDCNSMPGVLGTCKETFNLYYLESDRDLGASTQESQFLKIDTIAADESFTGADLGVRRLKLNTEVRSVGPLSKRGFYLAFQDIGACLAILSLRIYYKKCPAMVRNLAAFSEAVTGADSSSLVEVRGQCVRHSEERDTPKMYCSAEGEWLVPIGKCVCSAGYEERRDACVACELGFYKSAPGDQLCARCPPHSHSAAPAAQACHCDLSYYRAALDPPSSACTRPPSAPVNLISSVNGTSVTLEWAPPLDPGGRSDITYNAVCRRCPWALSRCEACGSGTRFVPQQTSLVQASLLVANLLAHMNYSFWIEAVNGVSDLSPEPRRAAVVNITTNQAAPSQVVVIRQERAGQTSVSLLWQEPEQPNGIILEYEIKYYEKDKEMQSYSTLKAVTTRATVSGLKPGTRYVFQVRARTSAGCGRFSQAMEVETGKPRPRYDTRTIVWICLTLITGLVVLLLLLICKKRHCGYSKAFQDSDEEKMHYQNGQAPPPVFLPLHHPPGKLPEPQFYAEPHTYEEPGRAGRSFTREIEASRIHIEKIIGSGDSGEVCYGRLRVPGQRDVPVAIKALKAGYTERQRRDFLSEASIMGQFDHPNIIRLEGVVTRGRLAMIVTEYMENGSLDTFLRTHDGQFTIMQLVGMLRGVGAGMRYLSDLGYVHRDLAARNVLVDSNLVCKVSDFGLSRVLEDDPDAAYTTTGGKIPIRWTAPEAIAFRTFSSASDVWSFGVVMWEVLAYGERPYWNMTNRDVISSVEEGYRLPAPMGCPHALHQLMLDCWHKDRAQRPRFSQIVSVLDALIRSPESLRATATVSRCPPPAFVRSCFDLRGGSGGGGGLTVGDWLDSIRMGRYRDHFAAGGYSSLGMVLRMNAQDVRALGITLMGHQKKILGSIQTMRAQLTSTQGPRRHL

CCN1C(=O)N(c2c(F)c(OC)cc(OC)c2F)Cc2cnc3[nH]c(CN4CCOCC4)cc3c21 [INCB054828, pemigatinib]
inhibition at 0.1 µM [1]: -2%
inhibition at 0.1 µM [2]: 3%
inhibition at 0.1 µM [3]: 2%
inhibition at 0.1 µM [4]: 2%
inhibition at 0.1 µM [5]: -2%
inhibition at 0.1 µM [6]: -3%
inhibition at 0.1 µM [7]: -1%
inhibition at 0.1 µM [8]: 3%
inhibition at 0.1 µM [9]: 16%
inhibition at 0.1 µM [10]: -2%
inhibition at 0.1 µM [11]: 2%
inhibition at 0.1 µM [12]: -4%
inhibition at 0.1 µM [13]: 3%
inhibition at 0.1 µM [14]: 1%
inhibition at 0.1 µM [15]: 6%
inhibition at 0.1 µM [16]: -4%
inhibition at 0.1 µM [17]: -4%
inhibition at 0.1 µM [18]: -3%
inhibition at 0.1 µM [19]: 2%
inhibition at 0.1 µM [20]: 0%
inhibition at 0.1 µM [21]: -6%
inhibition at 0.1 µM [22]: 1%
inhibition at 0.1 µM [23]: -1%
inhibition at 0.1 µM [24]: -3%
inhibition at 0.1 µM [25]: -7%
inhibition at 0.1 µM [26]: 3%
inhibition at 0.1 µM [27]: 4%
inhibition at 0.1 µM [28]: -8%
inhibition at 0.1 µM [29]: 1%
inhibition at 0.1 µM [30]: -1%
inhibition at 0.1 µM [31]: 1%
inhibition at 0.1 µM [32]: 1%
inhibition at 0.1 µM [33]: -4%
inhibition at 0.1 µM [34]: 1%
inhibition at 0.1 µM [35]: -2%
inhibition at 0.1 µM [36]: -2%
inhibition at 0.1 µM [37]: -3%
inhibition at 0.1 µM [38]: 1%
inhibition at 0.1 µM [39]: -1%
inhibition at 0.1 µM [40]: 8%
inhibition at 0.1 µM [41]: 7%
inhibition at 0.1 µM [42]: -4%
inhibition at 0.1 µM [43]: 2%
